In patent publication US6908931B2, “Tetrahydroisoquinoline derivatives as melatonin MT2 antagonists” (Bristol-Myers Squibb Company, priority 2003, dated 2005):
Like-named read-outs stand apart in the source and are kept apart here.

Target: T1, human MT2 receptor (Homo sapiens, UniProt P49286)
T1 construct: melatonin MT1 and MT2 receptors cDNA were individually subcloned into pcDNA3 and introduced into NIH-3T3 cells using Lipofectamine; expressed in transfected cells
T1 sequence (P49286 1-362): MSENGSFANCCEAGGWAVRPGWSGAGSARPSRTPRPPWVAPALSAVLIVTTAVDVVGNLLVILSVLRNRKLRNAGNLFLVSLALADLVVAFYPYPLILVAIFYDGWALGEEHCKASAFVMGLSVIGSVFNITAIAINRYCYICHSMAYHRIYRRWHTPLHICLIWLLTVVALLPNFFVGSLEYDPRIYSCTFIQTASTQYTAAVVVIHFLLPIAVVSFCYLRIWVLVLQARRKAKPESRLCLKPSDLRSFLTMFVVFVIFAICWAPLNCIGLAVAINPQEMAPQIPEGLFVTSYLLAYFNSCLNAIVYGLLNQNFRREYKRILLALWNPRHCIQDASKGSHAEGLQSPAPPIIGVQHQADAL
Assay: Melatonin receptor binding assay (MT2), 2-[125I]-iodomelatonin
Procedure: Melatonin receptor binding assay.
Membrane homogenates: melatonin MT1 and MT2 receptors cDNA were individually subcloned into pcDNA3 and introduced into NIH-3T3 cells using Lipofectamine. […] For preparing membrane homogenates, pellets are thawed on ice, and re-suspended in TME buffer in the presence of 10 μg/ml aprotinin and leupeptin, and 100 μM phenylmethylsulfonylfluoride. The cells were then homogenized using a dounce homogenizer, and centrifuged. The resulting pellet was re-suspended with dounce homogenizer in TME (supplemented with the above protease inhibitors) and frozen. On the day of assay, a small aliquot was thawed on ice and re-suspended in the ice cold TME (1:50-1:100 v/v) and held on ice until assayed. Incubation is at 37° C. for 1 hour. Reaction is terminated by filtration. Filters were washed 3 times.

[1] = membrane homogenates of NIH-3T3 cells expressing MT2, 2-[125I]-iodomelatonin 0.2 nM, 37° C., 1 hour, read-out: MT2 IC50

Row | SMILES | IC50 [1] [nM] | IC50 [nM]
1 | COC(=O)N1CCc2cc3c(cc2C1CCc1ccc(F)cc1)OCC3 (stereo not drawn) [Example 129] | 100 to 1000 | 
2 | COc1ccc2c(c1)C(CCc1ccc(F)cc1)N(C(=O)COC(C)=O)CC2 (stereo not drawn) [Example 118] | 100 to 1000 | 
3 | O=C(CCl)N1CCc2cc3c(cc2C1CCc1ccc(Cl)cc1)OCO3 (stereo not drawn) [Example 142] | < 100 | 
4 | COC(=O)N1CCc2cc(OC)c(OC)cc2C1CC(c1ccccc1)c1ccccc1 (stereo not drawn) [Example 10, N-carbomethoxy 1-(2,2-diphenyleth-1-yl)-6,7-dimethoxy-1,2,3,4-tetrahydroisoquinoline] | < 100 | 
5 | COCC(=O)N1CCc2cc3c(cc2C1CCc1ccc(F)cc1)OCO3 (stereo not drawn) [Example 96] | < 100 | 
6 | O=C(C1CCCC1)N1CCc2cc3c(cc2C1CCc1ccc(F)cc1)OCO3 (stereo not drawn) [Example 102] | < 100 | 
7 | COc1cc2c(cc1OC)C(CC(c1ccccc1)c1ccccc1)N(C(=O)C1CC1)CC2 (stereo not drawn) [Example 5, N-cyclopropylcarbonyl 1-(2,2-diphenyleth-1-yl)-6,7-dimethoxy-1,2,3,4-tetrahydroisoquinoline] | < 100 | 
8 | O=C(c1ccccc1)N1CCc2cc3c(cc2C1CCc1ccc(F)cc1)OCO3 (stereo not drawn) [Example 93] | 100 to 1000 | 
9 | COc1cc2c(cc1Br)CCN(C(=O)c1ccc([N+](=O)[O-])cc1)C2CC(c1ccccc1)c1ccccc1 (stereo not drawn) [Example 38] | 100 to 1000 | 
10 | COc1cc2c(cc1OC)C(CCc1ccccc1)N(C(N)=O)CC2 (stereo not drawn) [Example 16] | 100 to 1000 | 
11 | COc1cc2c(cc1OC)C(CC(c1ccccc1)c1ccccc1)N(C(N)=O)CC2 (stereo not drawn) [Example 8, N-carbamoyl 1-(2,2-diphenyleth-1-yl)-6,7-dimethoxy-1,2,3,4-tetrahydroisoquinoline] | < 100 | 
12 | COc1cc2c(cc1OC)C(CCc1ccccc1)N(C(C)=O)CC2 (stereo not drawn) [Example 14] | < 100 | 
13 | COc1cccc(CCC2c3cc(OC)c(OC)cc3CCN2C(C)=O)c1 (stereo not drawn) [Example 86] | < 100 | 
14 | COc1ccc2c(c1)C(CC(c1ccccc1)c1ccccc1)N(C(=O)c1ccc([N+](=O)[O-])cc1)CC2 (stereo not drawn) [Example 81] | 100 to 1000 | 
15 | COc1ccc2c(c1)C(CCc1ccc(F)cc1)N(C(=O)CC(C)(C)C)CC2 (stereo not drawn) [Example 121] | 100 to 1000 | 
16 | COc1cc2c(cc1OC)C(CCc1ccccc1)N(C(=O)c1ccco1)CC2 (stereo not drawn) [Example 55] | < 100 | 
17 | CC(=O)N1CCc2cc(F)ccc2C1CC(c1ccccc1)c1ccccc1 (stereo not drawn) [Example 28] | 100 to 1000 | 
18 | COc1cc2c(cc1OC)C(CC(c1ccccc1)c1ccccc1)N(C(=O)c1ccccc1)CC2 (stereo not drawn) [Example 6, N-benzoyl 1-(2,2-diphenyleth-1-yl)-6,7-dimethoxy-1,2,3,4-tetrahydroisoquinoline] | 100 to 1000 | 
19 | CC(C)COC(=O)N1CCc2cc3c(cc2C1CCc1ccc(F)cc1)OCO3 (stereo not drawn) [Example 106] | 100 to 1000 | 
20 | COc1cc2c(cc1OC)C(CC(c1ccccc1)c1ccccc1)N(C(=O)c1ccc(C(F)(F)F)cc1)CC2 (stereo not drawn) [Example 54] | 100 to 1000 | 
21 | CC(=O)OCC(=O)N1CCc2cc3c(cc2C1CCc1ccc(F)cc1)OCC3 (stereo not drawn) [Example 133] | 100 to 1000 | 
22 | CCCCCCC(=O)N1CCc2cc(Br)c(OC)cc2C1CC(c1ccccc1)c1ccccc1 (stereo not drawn) [Example 35] | < 100 | 
23 | CC(C)COC(=O)N1CCc2cc3c(cc2C1CCc1ccc(Cl)cc1)OCO3 (stereo not drawn) [Example 148] | 100 to 1000 | 

Row | SMILES | IC50 [1] [nM] | IC50 [nM]
24 | O=C(C=Cc1ccccc1)N1CCc2cc3c(cc2C1CCc1ccc(Cl)cc1)OCO3 (stereo not drawn) [Example 150] | 100 to 1000 | 
25 | COc1cc2c(cc1OC)C(CCc1ccccc1)N(C(=O)C1CCCCC1)CC2 (stereo not drawn) [Example 58] | 100 to 1000 | 
26 | COc1ccc2c(c1)C(CCc1ccc(F)cc1)N(C(=O)OCc1ccccc1)CC2 (stereo not drawn) [Example 114] | 100 to 1000 | 
27 | CC(=O)N1CCc2cc3c(cc2C1CCc1ccc(F)cc1)OCO3 (stereo not drawn) [Example 94] | 100 to 1000 | 
28 | COc1ccc2c(c1)C(CCc1ccc(F)cc1)N(C(=O)C1CC1)CC2 (stereo not drawn) [Example 109] | < 100 | 
29 | COc1cc2c(c(OC)c1)C(CC(c1ccccc1)c1ccccc1)N(C(C)=O)CC2 (stereo not drawn) [Example 21] | < 100 | 
30 | COc1cc2c(cc1OC)C(CC(c1ccccc1)c1ccccc1)N(C(=O)C1CCCCC1)CC2 (stereo not drawn) [Example 44] | < 100 | 
31 | COc1cc2c(cc1Br)CCN(C(=O)COc1ccccc1)C2CC(c1ccccc1)c1ccccc1 (stereo not drawn) [Example 31] | 100 to 1000 | 
32 | COc1cc2c(cc1OC)C(CCc1ccccc1)N(C=O)CC2 (stereo not drawn) [Example 15] | < 100 | 
33 | O=C(C1CC1)N1CCc2cc3c(cc2C1CCc1ccc(Cl)cc1)OCO3 (stereo not drawn) [Example 139] | < 100 | 
34 | COC(=O)N1CCc2ccc(OC)cc2C1CCc1ccc(F)cc1 (stereo not drawn) [Example 113] | < 100 | 
35 | CCC(=O)N1CCc2cc3c(cc2C1CCc1ccc(Cl)cc1)OCO3 (stereo not drawn) [Example 147] | < 100 | 
36 | COc1ccc2c(c1)C(CC(c1ccccc1)c1ccccc1)N(C(C)=O)CC2 (stereo not drawn) [Example 19] | < 100 | 
37 | COc1ccc2c(c1)C(CC(c1ccccc1)c1ccccc1)N(C(=O)CC(C)(C)C)CC2 (stereo not drawn) [Example 78] | 100 to 1000 | 
38 | COc1ccc2c(c1)C(CCc1ccc(F)cc1)N(C(C)=O)CC2 (stereo not drawn) [Example 90] | < 100 | 
39 | COc1cc2c(cc1OC)C(CCc1ccccc1)N(C(=O)Cc1ccccc1)CC2 (stereo not drawn) [Example 68] | 100 to 1000 | 
40 | COc1ccc2c(c1)C(CCc1ccc(F)cc1)N(C(=O)C1CCCC1)CC2 (stereo not drawn) [Example 116] | < 100 | 
41 | O=C(c1ccccc1)N1CCc2cc3c(cc2C1CCc1ccc(Cl)cc1)OCO3 (stereo not drawn) [Example 137] | 100 to 1000 | 
42 | COCC(=O)N1CCc2cc3c(cc2C1CCc1ccc(Cl)cc1)OCO3 (stereo not drawn) [Example 140] | < 100 | 
43 | O=C(OCc1ccccc1)N1CCc2cc3c(cc2C1CCc1ccc(F)cc1)OCO3 (stereo not drawn) [Example 100] |  | 100 to 1000
44 | COc1cc2c(cc1OC)C(CCc1ccccc1)N(C(=O)c1cc(C(F)(F)F)cc(C(F)(F)F)c1)CC2 (stereo not drawn) [Example 69] | 100 to 1000 | 
45 | COc1ccc(C(=O)N2CCc3ccc(OC)cc3C2CC(c2ccccc2)c2ccccc2)cc1 (stereo not drawn) [Example 79] | 100 to 1000 | 
46 | COc1cc2c(cc1OC)C(CC(c1ccccc1)c1ccccc1)N(C(=O)c1ccco1)CC2 (stereo not drawn) [Example 41] | 100 to 1000 | 

Row | SMILES | IC50 [1] [nM] | IC50 [nM]
47 | CCCC(=O)N1CCc2ccc(OC)cc2C1CCc1ccc(F)cc1 (stereo not drawn) [Example 115] | < 100 | 
48 | CC(=O)N1CCc2cc3c(cc2C1CCc1ccc(Cl)cc1)OCO3 (stereo not drawn) [Example 138] | 100 to 1000 | 
49 | CCCCCC(=O)N1CCc2cc(Br)c(OC)cc2C1CC(c1ccccc1)c1ccccc1 (stereo not drawn) [Example 34] | 100 to 1000 | 
50 | COc1ccc2c(c1OC)CCN(C(C)=O)C2CC(c1ccccc1)c1ccccc1 (stereo not drawn) [Example 24] | 100 to 1000 | 
51 | COc1cc2c(cc1OC)C(CCc1ccccc1)N(C(=O)C(C)C)CC2 (stereo not drawn) [Example 59] | 100 to 1000 | 
52 | CC(C)(C)CC(=O)N1CCc2cc3c(cc2C1CCc1ccc(F)cc1)OCO3 (stereo not drawn) [Example 107] | 100 to 1000 | 
53 | CCCCCCCCCC(=O)N1CCc2cc(OC)c(OC)cc2C1CCc1ccccc1 (stereo not drawn) [Example 62] | 100 to 1000 | 
54 | COc1cc2c(cc1OC)C(CCc1ccccc1)N(C(=O)C1CCC1)CC2 (stereo not drawn) [Example 57] | < 100 | 
55 | CCCC(=O)N1CCc2cc(OC)c(OC)cc2C1CC(c1ccccc1)c1ccccc1 (stereo not drawn) [Example 4, N-butyryl 1-(2,2-diphenyleth-1-yl)-6,7-dimethoxy-1,2,3,4-tetrahydroisoquinoline] | < 100 | 
56 | COc1cc2c(cc1OC)C(CC(c1ccccc1)c1ccccc1)N(C(=O)c1ccccc1OC)CC2 (stereo not drawn) [Example 42] | 100 to 1000 | 
57 | COc1ccc2c(c1)C(CC(c1ccccc1)c1ccccc1)N(C(=O)c1ccc(C)cc1)CC2 (stereo not drawn) [Example 82] | 100 to 1000 | 
58 | O=C(C1CC1)N1CCc2cc3c(cc2C1CCc1ccc(F)cc1)OCO3 (stereo not drawn) [Example 95] | < 100 | 
59 | COc1cc2c(cc1OC)C(CCc1ccccc1)N(C(=O)CC(C)(C)C)CC2 (stereo not drawn) [Example 63] | 100 to 1000 | 
60 | CCCCCCC(=O)N1CCc2cc(OC)c(OC)cc2C1CC(c1ccccc1)c1ccccc1 (stereo not drawn) [Example 45] | 100 to 1000 | 
61 | COc1cc2c(cc1OC)C(CCc1ccccc1)N(C(=O)c1ccc([N+](=O)[O-])cc1)CC2 (stereo not drawn) [Example 66] | 100 to 1000 | 
62 | COc1ccc2c(c1)C(CC(c1ccccc1)c1ccccc1)N(C(C)=O)CC2 (stereo not drawn) [Example 20] | < 100 | 
63 | CC(C)(C)CC(=O)N1CCc2cc3c(cc2C1CCc1ccc(Cl)cc1)OCO3 (stereo not drawn) [Example 149] | 100 to 1000 | 
64 | COc1ccc2c(c1)C(CC(c1ccccc1)c1ccccc1)N(C(=O)c1cccc([N+](=O)[O-])c1)CC2 (stereo not drawn) [Example 80] | 100 to 1000 | 
65 | COc1ccc2c(c1)C(CC(c1ccccc1)c1ccccc1)N(C(=O)c1cc(C(F)(F)F)cc(C(F)(F)F)c1)CC2 (stereo not drawn) [Example 83] | 100 to 1000 | 
66 | CCC(=O)N1CCc2ccc(OC)cc2C1CCc1ccc(F)cc1 (stereo not drawn) [Example 119] | < 100 | 
67 | COc1cc2c(cc1OC)C(CC(c1ccccc1)c1ccc(Cl)cc1)N(C(C)=O)CC2 (stereo not drawn) [Example 84] | < 100 | 
68 | COc1ccc2c(c1)C(CCc1ccc(F)cc1)N(C(=O)c1ccno1)CC2 (stereo not drawn) [Example 117] | < 100 | 
69 | COc1ccc(C(CC2c3cc(OC)c(OC)cc3CCN2C(C)=O)c2ccc(OC)cc2)cc1 (stereo not drawn) [Example 25] | 100 to 1000 | 
